{"source": "the NIST ThermoML archive (doi:10.1016/j.tca.2014.08.003)", "details": "Crystal, Calculated from knudsen effusion weight loss", "note": "Numbers after ± are expanded uncertainties.", "data": [{"molecule": "[Cu][Br]", "note": "[copper(1+) bromide]", "values": [{"measurement": "vapor or sublimation pressure", "setting": "528.8 K", "value": "1.17e-05 ± 1.2e-06", "unit": "kPa"}, {"measurement": "vapor or sublimation pressure", "setting": "530.1 K", "value": "9.37e-06 ± 1e-06", "unit": "kPa"}, {"measurement": "vapor or sublimation pressure", "setting": "532 K", "value": "1.25e-05 ± 1.3e-06", "unit": "kPa"}, {"measurement": "vapor or sublimation pressure", "setting": "551.4 K", "value": "2.45e-05 ± 2.7e-06", "unit": "kPa"}, {"measurement": "vapor or sublimation pressure", "setting": "551.6 K", "value": "3.17e-05 ± 3.4e-06", "unit": "kPa"}, {"measurement": "vapor or sublimation pressure", "setting": "553.5 K", "value": "4.55e-05 ± 4.8e-06", "unit": "kPa"}, {"measurement": "vapor or sublimation pressure", "setting": "570.8 K", "value": "9.35e-05 ± 9.9e-06", "unit": "kPa"}, {"measurement": "vapor or sublimation pressure", "setting": "572.6 K", "value": "0.000104 ± 1.1e-05", "unit": "kPa"}, {"measurement": "vapor or sublimation pressure", "setting": "573.5 K", "value": "0.000113 ± 1.2e-05", "unit": "kPa"}, {"measurement": "vapor or sublimation pressure", "setting": "592.1 K", "value": "0.000235 ± 2.5e-05", "unit": "kPa"}, {"measurement": "vapor or sublimation pressure", "setting": "593.8 K", "value": "0.000273 ± 2.9e-05", "unit": "kPa"}, {"measurement": "vapor or sublimation pressure", "setting": "594.6 K", "value": "0.000301 ± 3.2e-05", "unit": "kPa"}, {"measurement": "vapor or sublimation pressure", "setting": "611.9 K", "value": "0.000512 ± 5.4e-05", "unit": "kPa"}, {"measurement": "vapor or sublimation pressure", "setting": "614.9 K", "value": "0.000595 ± 6.3e-05", "unit": "kPa"}, {"measurement": "vapor or sublimation pressure", "setting": "618.1 K", "value": "0.000705 ± 7.5e-05", "unit": "kPa"}, {"measurement": "vapor or sublimation pressure", "setting": "633 K", "value": "0.00115 ± 0.00014", "unit": "kPa"}, {"measurement": "vapor or sublimation pressure", "setting": "634.1 K", "value": "0.00121 ± 0.00015", "unit": "kPa"}, {"measurement": "vapor or sublimation pressure", "setting": "635 K", "value": "0.00109 ± 0.00013", "unit": "kPa"}, {"measurement": "vapor or sublimation pressure", "setting": "655.2 K", "value": "0.00229 ± 0.0003", "unit": "kPa"}, {"measurement": "vapor or sublimation pressure", "setting": "656.8 K", "value": "0.00229 ± 0.0003", "unit": "kPa"}, {"measurement": "vapor or sublimation pressure", "setting": "658.2 K", "value": "0.00269 ± 0.00035", "unit": "kPa"}]}, {"molecule": "[Br-].[Br-].[Zn+2]", "note": "[zinc bromide]", "values": [{"measurement": "vapor or sublimation pressure", "setting": "452.5 K", "value": "2.26e-05 ± 2.4e-06", "unit": "kPa"}, {"measurement": "vapor or sublimation pressure", "setting": "452.8 K", "value": "2.04e-05 ± 2.2e-06", "unit": "kPa"}, {"measurement": "vapor or sublimation pressure", "setting": "453.1 K", "value": "2.07e-05 ± 2.2e-06", "unit": "kPa"}, {"measurement": "vapor or sublimation pressure", "setting": "453.6 K", "value": "1.28e-05 ± 1.4e-06", "unit": "kPa"}, {"measurement": "vapor or sublimation pressure", "setting": "469.4 K", "value": "4.74e-05 ± 5e-06", "unit": "kPa"}, {"measurement": "vapor or sublimation pressure", "setting": "472.1 K", "value": "9.63e-05 ± 1e-05", "unit": "kPa"}, {"measurement": "vapor or sublimation pressure", "setting": "472.7 K", "value": "8.63e-05 ± 9.2e-06", "unit": "kPa"}, {"measurement": "vapor or sublimation pressure", "setting": "473.8 K", "value": "7.35e-05 ± 7.8e-06", "unit": "kPa"}, {"measurement": "vapor or sublimation pressure", "setting": "492.8 K", "value": "0.000262 ± 2.8e-05", "unit": "kPa"}, {"measurement": "vapor or sublimation pressure", "setting": "493.1 K", "value": "0.000181 ± 1.9e-05", "unit": "kPa"}, {"measurement": "vapor or sublimation pressure", "setting": "493.2 K", "value": "0.000217 ± 2.3e-05", "unit": "kPa"}, {"measurement": "vapor or sublimation pressure", "setting": "493.9 K", "value": "0.000252 ± 2.7e-05", "unit": "kPa"}, {"measurement": "vapor or sublimation pressure", "setting": "511.2 K", "value": "0.000691 ± 7.3e-05", "unit": "kPa"}, {"measurement": "vapor or sublimation pressure", "setting": "511.3 K", "value": "0.000577 ± 6.1e-05", "unit": "kPa"}, {"measurement": "vapor or sublimation pressure", "setting": "513 K", "value": "0.000684 ± 7.3e-05", "unit": "kPa"}, {"measurement": "vapor or sublimation pressure", "setting": "513.1 K", "value": "0.000719 ± 7.6e-05", "unit": "kPa"}, {"measurement": "vapor or sublimation pressure", "setting": "528.9 K", "value": "0.00158 ± 0.0002", "unit": "kPa"}, {"measurement": "vapor or sublimation pressure", "setting": "530.2 K", "value": "0.00192 ± 0.00025", "unit": "kPa"}, {"measurement": "vapor or sublimation pressure", "setting": "532.9 K", "value": "0.00201 ± 0.00026", "unit": "kPa"}, {"measurement": "vapor or sublimation pressure", "setting": "533.9 K", "value": "0.0019 ± 0.00024", "unit": "kPa"}, {"measurement": "vapor or sublimation pressure", "setting": "551.6 K", "value": "0.0051 ± 0.00071", "unit": "kPa"}, {"measurement": "vapor or sublimation pressure", "setting": "552 K", "value": "0.00505 ± 0.0007", "unit": "kPa"}, {"measurement": "vapor or sublimation pressure", "setting": "552.7 K", "value": "0.00453 ± 0.00062", "unit": "kPa"}, {"measurement": "vapor or sublimation pressure", "setting": "552.8 K", "value": "0.00521 ± 0.00072", "unit": "kPa"}, {"measurement": "vapor or sublimation pressure", "setting": "568 K", "value": "0.00978 ± 0.0014", "unit": "kPa"}, {"measurement": "vapor or sublimation pressure", "setting": "570.3 K", "value": "0.0106 ± 0.0016", "unit": "kPa"}, {"measurement": "vapor or sublimation pressure", "setting": "572.3 K", "value": "0.00997 ± 0.0014", "unit": "kPa"}, {"measurement": "vapor or sublimation pressure", "setting": "574 K", "value": "0.0126 ± 0.0019", "unit": "kPa"}]}]}
